According to patent publication US8772463B2, “Fluorescent dye-labeled glucose bioprobe, synthesis method and usage thereof” (SNU R&DB Foundation, priority 2007, dated 2014):

Experiments:
[1] = test system: NIH/3T3 cells; test: Cy3-Glc-α uptake in normal cells versus cancer cells, inverted fluorescent microscope; format: cell-based, murine
Protocol: (§1) 1×10^4 cells were cultured on a Lab-Tek glass chamber slide (Nalge Nunc International, Naperville, Ind., USA) in 35 mm cell culture dish. After 24 h, the cells were treated for each experimental purpose. Then, the medium was replaced with RPMI 1640 medium containing 12.5 μM of Cy3-Glc-α. The cells were exposed to Cy3-Glc-α for 40 min, then washed with PBS 3 times. Finally, the glass chamber slide was taken from culture dish and loaded on the fluorescence microscope (Axiovert 200, Carl Zeiss, Germany). Fluorescence images of 35-50 cells were taken by CCD camera (Axiocam MRm, Germany) and fluorescence intensity of each cell was measured by Axiovision (program for data analysis). An area as ROIs (regions of interest) which contains a cell in phase-contrast image was drawn using Axiovision. Axiovision analyzed CCD camera images and provided the digitized mean of fluorescence intensity in the ROIs that the present inventors had established. The present inventors subtracted the background intensity from the fluorescence intensity to get the fluorescence intensity value that a cell contained. With the method described above, the present inventors digitized fluorescence intensity and performed various experiments.
(2) Based on this observation, further studies in bioimaging and bioapplication were performed only with the α anomer as choice of the bioprobe. […]

[2] = test system: A549 cells; test: Probe uptake by A549 cells, inverted fluorescent microscope (α/β anomers, alanine, 2-NBDG comparison); format: cell-based, human
Protocol: as §1
To confirm the above hypothesis, real-time uptake of Cy3-Glc-α was measured, and the results were compared to those of Cy3-Glc-β by live imaging of A549 cells by using inverted fluorescent microscope. […] This led the present inventors to the conclusion that the stereochemistry at the C-1 anomeric position definitely influences the efficiency of mimicking glucose, and this might be due to the binding orientation of D-glucose in GLUTs [P. W. Hruz, M. M. Mueckler, Mole. Memb. Biol. 2001, 18, 183-193].
The cellular uptake of 2-NBDG was not detected under identical experimental conditions used for Cy3-Glc-α. […] To achieve the fluorescence intensity with 2-NBDG to 80% that of Cy3-Glc-α, a 10 fold increase in 2-NBDG concentration and a 20 fold increase in the lens exposure time in D-glucose-depleted medium were needed.
In addition, the cellular uptake of 2-NBDG in normal media (containing 10 mM D-glucose) was extremely low (>60% uptake reduction in normal media) and was hardly detected using fluorescent based imaging methods [R. G. O'Neil, L. Wu, N. Mullani, Mol. Imaging Biol. 2005, 7, 388-392]. 2-NBDG was detectable only in glucose-depleted media, and this means a critical limitation of bioapplication of 2-NBDG in the biologically significant environments. In comparison with 2-NBDG, the reduction of Cy3-Glc-α uptake in glucose-containing media was only 5% compared to that in glucose-depleted media (FIG. 18). Therefore, it was confirmed that Cy3-Glc-α was capable of being applied to a bioassay system regardless of glucose starvation.

[3] = test system: cells; test: Cell viability, CCK-8 kit; format: cell-based; settings: Cy3-Glc-α 12.5 μM
Protocol: (2) Therefore, Cy3-Glc-α should not affect cell viability. The viability of cells treated with Cy3-Glc-α (12.5 μM) by using a CCK-8 kit (Cell Counting Kit-8, Dojindo, Japan) was measured by using an ELISA plate reader (ELx800™, BioTex, USA) DP. CCK-8 is a colorimetric assay for determining the number of viable cells in cell proliferation and cytotoxicity assays. The principle of measuring cell viability of CCK-8 is the same as that of MTT. However, CCK-8 is more sensitive than MTT.

[4] = test system: NIH/3T3 cells; test: FACS-based flow cytometric analysis of probe uptake with/without 11 mM D-glucose; format: cell-based, murine; settings: probe 5 μM; glucose-depleted condition normalized to 100
Protocol: FACS (Fluorescence Activated Cell Sorting)-based flow cytometric analysis was used to compare cellular uptake efficiency in NIH/3T3 cells among the glucose probe [2-(N-Cy3-piperazinoethyl)]-α-D-glucose (GB2-Cy3), synthesized in Example 2, the conventional fluorescent glucose probe 2-NBDG and the glucose probe Cy3-Glc-α, synthesized in Example 1.
NIH/3T3 cells were cultured on 10 cm cell culture dishes and transferred in a volume of 3×10^5 cells into each FACS tube (5 mL, BD). They were washed once with cold PBS before incubation at 37° C. for 30 min in 11 mM D-glucose-containing PBS or glucose-free PBS in the presence of the bioprobe [GB2-Cy3 (5 μM), 2-NBDG (5 μM or 50 μM) or Cy3-Glc-α (5 μM)]. Cells that were incubated without the bioprobes were used as a negative control. After being washed with cold PBS, 1×10^4 NIH/3T3 cells were analyzed on FACSCalibur™ (FACS-based flow cytometer). GBs-Cy3 was detected by FL2 channels. Raw data of 1×10^4 cells are shown in histograms, with the mean values thereof given in the graph of FIG. 21.

[5] = test system: A549 cells; test: Fluorescence imaging analysis of competitive probe uptake; format: cell-based, human; settings: probe 12.5 μM
Protocol: Also, NIH/3T3, A549, C2C12 and 3T3/L1 cells, each having a population of 4×10^4 cells, were cultured on 35 mm cell culture dishes (BD Falcon™ Cell Culture Dish; BD Bioscience, CA, USA). Two days later, the cell culture medium was replaced with a glucose-depleted medium (DMEM, glucose free, GIBCO) supplemented with 0 mM, 11 mM or 55 mM D-glucose and 10 μM GB2-Cy3. After incubation at 37° C. for 30 min, the cells on the cover slips in the 35-mm cell culture dishes were washed twice with cold PBS and the cover slips were mounted on the caster of a fluorescence microscope (Olympus IX71). During observation under the fluorescence microscope, the cells were maintained at 37° C. in the chamber. Fluorescence images of 35-50 cells were taken by CCD camera (Axiocam MRm, Germany) and each cell was measured for fluorescence intensity using the image data analysis program Image-Pro® Plus (MediaCybernetics, USA). As ROIs (regions of interest), areas which encompassed cells within phase-contrast images were drawn using Image-Pro® Plus. Image-Pro® Plus analyzed CCD camera images to produce the digitized mean of fluorescence intensity within the ROIs that the present inventors had established. The background intensity was subtracted from the detected fluorescence intensity to give the fluorescence intensity value that a cell contained. In this manner, the fluorescence intensity was digitized for performing various experiments.
NIH/3T3 and A549 cells were cultured on microscope cover glasses in 35 mm cell culture dishes and subjected to fluorescence imaging analysis according to the protocol.

C[N+]1=C(/C=C/C=C2/N(CCCCC(=O)NCCOCCOCCNCCOC3OC(CO)C(O)C(O)C3O)c3ccccc3C2(C)C)C(C)(C)c2ccccc21 [Cy3-Glc-α, [2-(N-Cy3-3,6-dioxaoctane-1,8-diaminoethyl)]-α-D-glucose]
Cy3-Glc-α uptake in NIH/3T3 relative to that of A549 cells [1]: 30% | uptake efficiency with or without alanine (osmotic pressure) ([2]; 55 mM alanine in media): no difference in the uptake efficiency | reduction of uptake in glucose-containing media compared to glucose-depleted media ([2]; A549 cells): 5% | uptake of Cy3-Glc-α superior to that of Cy3-Glc-β ([2]; A549 cells, live imaging): 40% | cell viability [3]: does not affect cell viability | reduction in cellular uptake due to 11 mM D-glucose [4]: about 50% | cellular uptake versus D-glucose concentration [5]: decreased in the cellular uptake of the glucose analogues in D-glucose dose-dependent manners | change in the fluorescent intensity of ROIs when D-glucose changed from 10 mM to 55 mM [5]: approximately 5% | fluorescent intensity of treated cells, GB2-Cy3 normalized to 100 [5]: 4
